Test results: patent US20260125382A1, “COMPOUNDS FOR INHIBITING OR DEGRADING CDK2 AND/OR CDK9 AND MEDICINAL USE THEREOF” (KOREA RESEARCH INSTITUTE OF CHEMICAL TECHNOLOGY, priority 2022, published 2026)

How the values were obtained:
[1] = target: T1, CDK9 (Homo sapiens, UniProt P50750); test: CDK protein degradation activity (Western blotting), CDK9; assay type: cell-based; settings: MDA-MB-231 cells, 16 hours, Western blot
T1 construct: endogenous in cells; host or cells: MDA-MB-231
Method in brief: (§1)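 Degradation is judged from CDK2 and CDK9 band intensity relative to tubulin and DMSO-treated cells, after 16 h exposure of MDA-MB-231 cells to three compound concentrations (100 nM, 1 μM, 10 μM).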

[2] = target: T2, CDK2 (Homo sapiens, UniProt P24941); test: CDK protein degradation activity (Western blotting), CDK2; assay type: cell-based; settings: MDA-MB-231 cells, 16 hours, Western blot
T2 construct: endogenous in cells; host or cells: MDA-MB-231
Method in brief: as §1

T1 sequence (P50750 whole entry): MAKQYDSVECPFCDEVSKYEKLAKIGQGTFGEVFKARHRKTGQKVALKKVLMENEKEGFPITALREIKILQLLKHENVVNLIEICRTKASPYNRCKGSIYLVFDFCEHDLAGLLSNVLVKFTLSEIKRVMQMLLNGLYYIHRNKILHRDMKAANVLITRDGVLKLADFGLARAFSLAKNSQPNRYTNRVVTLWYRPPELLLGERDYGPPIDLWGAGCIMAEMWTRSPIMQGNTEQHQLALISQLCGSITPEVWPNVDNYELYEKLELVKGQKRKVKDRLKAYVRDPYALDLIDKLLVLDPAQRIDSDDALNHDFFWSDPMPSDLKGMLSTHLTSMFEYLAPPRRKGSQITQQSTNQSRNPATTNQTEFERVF

| Structure (SMILES) | Enzyme degradation CDK9 (% remaining) @ 0.1 μM [1] | Enzyme degradation CDK9 (% remaining) @ 1 μM [1] | Enzyme degradation CDK9 (% remaining) @ 10 μM [1] | Enzyme degradation CDK2 (% remaining) @ 0.1 μM [2] | Enzyme degradation CDK2 (% remaining) @ 1 μM [2] | Enzyme degradation CDK2 (% remaining) @ 10 μM [2] |
| --- | --- | --- | --- | --- | --- | --- |
| O=C1CC[C@H](N2C(=O)c3ccc(N4CC(C(=O)N5CCC6(CC5)CC(N5CCN(c7ccc(Nc8ncnc9c8ncn9[C@H]8C[C@@H](NC(=O)Cc9ccccc9)C8)cc7)CC5)C6)C4)cc3C2=O)C(=O)N1 [Compound 352, N-((1s,3s)-3-(6-((4-(4-(7-(1-(2-(2,6-dioxopiperidin-3-yl)-1,3-dioxoisoindolin-5-yl)azetidin-3-carbonyl)-7-azaspiro[3.5]nonan-2-yl)piperazin-1-yl)phenyl)amino)-9H-purin-9-yl)cyclobutyl)-2-phenylacetamide] | 20/20/20% | 20/20/20% | 20/20/20% | 90% | 70% | 70% |
| O=C1CC[C@H](N2C(=O)c3ccc(N4CCC(C(=O)N5CCC6(CC5)CC(N5CCN(c7ccc(Nc8ncnc9c8ncn9C8CC(NC(=O)Cc9ccccc9)C8)cc7)CC5)C6)CC4)cc3C2=O)C(=O)N1 (stereo partly drawn) [Compound 353, N-((1s,3s)-3-(6-((4-(4-(7-(1-(2-(2,6-dioxopiperidin-3-yl)-1,3-dioxoisoindolin-5-yl)piperidin-4-carbonyl)-7-azaspiro[3.5]nonan-2-yl)piperazin-1-yl)phenyl)amino)-9H-purin-9-yl)cyclobutyl)-2-phenylacetamide] | 10/10/10% | 10/10/10% | 10/10/10% | 70% | 40% | 40% |
| Cc1cccc(C(=O)NC2CC(n3cnc4c(NCCC5CCN(CC6CCN(C(=O)C7CCN(c8ccc9c(c8)C(=O)N([C@H]8CCC(=O)NC8=O)C9=O)CC7)CC6)CC5)ncnc43)C2)n1 (stereo partly drawn) [Compound 355, N-((1s,3s)-3-(6-((2-(1-((1-(1-(2-(2,6-dioxopiperidin-3-yl)-1,3-dioxoisoindolin-5-yl)piperidin-4-carbonyl)piperidin-4-yl)methyl)piperidin-4-yl)ethyl)amino)-9H-purin-9-yl)cyclobutyl)-6-methylpicolinamide] | 10% | 0% | 0% | 70% | 60% | 60% |
| O=C1CC[C@H](n2nnc3ccc(N4CCN(C5CCN(c6ccc(Nc7ncnc8c7ncn8C7CC(NC(=O)Cc8ccccc8)C7)cc6)CC5)CC4)cc3c2=O)C(=O)N1 (stereo partly drawn) [Compound 357, N-((1s,3s)-3-(6-((4-(4-(4-(3-(2,6-dioxopiperidin-3-yl)-4-oxo-3,4-dihydrobenzo[d][1,2,3]triazin-6-yl)piperazin-1-yl)piperidin-1-yl)phenyl)amino)-9H-purin-9-yl)cyclobutyl)-2-phenylacetamide] | 80% | 30% | 30% | 70% | 20% | 20% |
| O=C1CC[C@H](N2C(=O)c3ccc(N4CCC(C(=O)N5CCN(C6CC7(CCN(c8ccc(Nc9ncnc%10c9ncn%10[C@H]9C[C@@H](NC(=O)Cc%10ccccc%10)C9)cc8)CC7)C6)CC5)CC4)cc3C2=O)C(=O)N1 [Compound 361, N-((1s,3s)-3-(6-((4-(2-(4-(1-(2-(2,6-dioxopiperidin-3-yl)-1,3-dioxoisoindolin-5-yl)piperidin-4-carbonyl)piperazin-1-yl)-7-azaspiro[3.5]nonan-7-yl)phenyl)amino)-9H-purin-9-yl)cyclobutyl)-2-phenylacetamide] | 50% | 10% | 10% | 20% | 10% | 10% |

Other lines, results leading:

| Enzyme degradation CDK9 (% remaining) @ 0.1 μM [1] | Enzyme degradation CDK9 (% remaining) @ 1 μM [1] | Enzyme degradation CDK9 (% remaining) @ 10 μM [1] | Enzyme degradation CDK2 (% remaining) @ 0.1 μM [2] | Enzyme degradation CDK2 (% remaining) @ 1 μM [2] | Enzyme degradation CDK2 (% remaining) @ 10 μM [2] | Structure (SMILES) |
| --- | --- | --- | --- | --- | --- | --- |
| 30% | 0% | 0% | 10% | 0% | 0% | O=C1CC[C@H](N2C(=O)c3ccc(N4CCN(CCCC5CCN(c6ccc(Nc7ncnc8c7ncn8C7CC(NC(=O)Cc8ccccc8)C7)cc6)CC5)CC4)cc3C2=O)C(=O)N1 (stereo partly drawn) [Compound 347, N-((1s,3s)-3-(6-((4-(4-(3-(4-(2-(2,6-dioxopiperidin-3-yl)-1,3-dioxoisoindolin-5-yl)piperazin-1-yl)propyl)piperidin-1-yl)phenyl)amino)-9H-purin-9-yl)cyclobutyl)-2-phenylacetamide] |
| 80% | 20% | 0% | 30% | 10% | 10% | O=C1CC[C@H](N2C(=O)c3cc(F)c(N4CCN(CCCC5CCN(c6ccc(Nc7ncnc8c7ncn8[C@H]7C[C@@H](NC(=O)Cc8ccccc8)C7)cc6)CC5)CC4)cc3C2=O)C(=O)N1 [Compound 348, N-((1s,3s)-3-(6-((4-(4-(3-(4-(2-(2,6-dioxopiperidin-3-yl)-6-fluoro-1,3-dioxoisoindolin-5-yl)piperazin-1-yl)propyl)piperidin-1-yl)phenyl)amino)-9H-purin-9-yl)cyclobutyl)-2-phenylacetamide] |
| 30% | 20% | 20% | 0/0/0% | 0/0/0% | 0/0/0% | O=C1CC[C@H](n2nnc3ccc(N4CCN(CCCC5CCN(c6ccc(Nc7ncnc8c7ncn8C7CC(NC(=O)Cc8ccccc8)C7)cc6)CC5)CC4)cc3c2=O)C(=O)N1 (stereo partly drawn) [Compound 349, N-((1s,3s)-3-(6-((4-(4-(3-(4-(3-(2,6-dioxopiperidin-3-yl)-4-oxo-3,4-dihydrobenzo[d][1,2,3]triazin-6-yl)piperazin-1-yl)propyl)piperidin-1-yl)phenyl)amino)-9H-purin-9-yl)cyclobutyl)-2-phenylacetamide] |
| 50% | 30% | 30% | 30/30/30% | 30/30/30% | 30/30/30% | O=C1CCC(N2C(=O)c3ccc(N4CCC(C(=O)N5CC(N6CCN(c7ccc(Nc8ncnc9c8ncn9[C@H]8C[C@@H](NC(=O)Cc9ccccc9)C8)cc7)CC6)C5)CC4)cc3C2=O)C(=O)N1 (stereo partly drawn) [Compound 350, N-((1s,3s)-3-(6-((4-(4-(1-(1-(2-(2,6-dioxopiperidin-3-yl)-1,3-dioxoisoindolin-5-yl)piperidin-4-carbonyl)azetidin-3-yl)piperazin-1-yl)phenyl)amino)-9H-purin-9-yl)cyclobutyl)-2-phenylacetamide] |
| 10/10/10% | 10/10/10% | 10/10/10% | 20% | 10% | 10% | O=C1CC[C@H](n2nnc3ccc(N4CCC(CCCN5CCN(c6ccc(Nc7ncnc8c7ncn8C7CC(NC(=O)Cc8ccccc8)C7)cc6)CC5)CC4)cc3c2=O)C(=O)N1 (stereo partly drawn) [Compound 351, N-((1s,3s)-3-(6-((4-(4-(3-(1-(3-(2,6-dioxopiperidin-3-yl)-4-oxo-3,4-dihydrobenzo[d][1,2,3]triazin-6-yl)piperidin-4-yl)propyl)piperazin-1-yl)phenyl)amino)-9H-purin-9-yl)cyclobutyl)-2-phenylacetamide] |
| 10/10/10% | 10/10/10% | 10/10/10% | 50% | 50% | 60% | O=C1CC[C@H](N2C(=O)c3ccc(N4CCC(C(=O)N5CCC(CCCN6CCN(c7ccc(Nc8ncnc9c8ncn9C8CC(NC(=O)Cc9ccccc9)C8)cc7)CC6)CC5)CC4)cc3C2=O)C(=O)N1 (stereo partly drawn) [Compound 354, N-((1s,3s)-3-(6-((4-(4-(3-(1-(1-(2-(2,6-dioxopiperidin-3-yl)-1,3-dioxoisoindolin-5-yl)piperidin-4-carbonyl)piperidin-4-yl)propyl)piperazin-1-yl)phenyl)amino)-9H-purin-9-yl)cyclobutyl)-2-phenylacetamide] |
| 40% | 0% | 0% | 90% | 80% | 70% | O=C1CC[C@H](N2C(=O)c3ccc(N4CC(C(=O)N5CCN(CCC6CCN(c7ccc(Nc8ncnc9c8ncn9[C@H]8C[C@@H](NC(=O)Cc9ccccc9)C8)cc7)CC6)CC5)C4)cc3C2=O)C(=O)N1 [Compound 362, N-((1s,3s)-3-(6-((4-(4-(2-(4-(1-(2-(2,6-dioxopiperidin-3-yl)-1,3-dioxoisoindolin-5-yl)azetidin-3-carbonyl)piperazin-1-yl)ethyl)piperidin-1-yl)phenyl)amino)-9H-purin-9-yl)cyclobutyl)-2-phenylacetamide] |
